Values joined by “and” are separate entries in the source; they are usually repeats but may differ in a detail not shown here. Equal values may be shown once. Peptide text beside a SMILES is read from it.
From the text: All subjects who met eligibility criteria were confined to the clinical research unit from […] through Day 3. At admission, physical examination, vital signs, 12 lead ECG and weight were obtained, medical and medication history were updated if necessary, safety blood tests (hematology and chemistry), urinalysis, urine drug screen and an alcohol breath test were repeated and a urine pregnancy test was done for women of childbearing potential.
At each dose level, there were 2 sentinel subjects, (1 active, 1 placebo), who were dosed at least 48 hours in advance of the other subjects in their respective group. Following review of safety data, including physical examination, vital signs, and review of adverse events from the first 2 subjects, enrolment in the cohort continued.
A 12-lead ECG was performed on Day 1, within 60 minutes of infusion start (in triplicate), mid-way through the infusion, at the completion of the infusion, 30 minutes after completion of the infusion and at various timepoints following the end of the infusion.
Vital signs were recorded within 60 minutes pre-dose, at the mid-point of the infusion and post dose vitals were assessed at completion of the infusion, 0.5, 1, 2, 3, 4, 6, 9, 12, 24 and 48 hours post dose, after at least 3 minutes of rest in supine position.
Subjects returned to the study center 7 days after dosing, for the termination visit. A full physical examination, vital signs and weight were obtained, concomitant medications were updated if necessary, safety blood specimens (haematology and chemistry, PT and aPTT) and urine were collected for urinalysis and urine drug screening. A serum pregnancy test was done for women of childbearing potential and a 12-lead ECG was performed.
In this study dose limiting toxicity (DLT) was defined as any drug related ≥Grade 3 AEs occurring despite optimal therapeutic interventions (which included but were not limited to allergic/hypersensitivity reactions, dermatological reactions/infusion site reactions, haematological toxicities such as neutropenia, thrombocytopenia and anaemia and clinical chemistry abnormalities) experienced up to Day 7 (Termination Visit).
(§1) All subjects who received any amount of study drug were included in the safety analysis (Safety population).
The study was a double blinded, randomized, placebo-controlled study. The placebo administered was 0.9% sodium chloride.
On Day 1 (day of dosing), subjects were randomly assigned either peptide IV or Placebo IV. At each dose level, there were 2 sentinel subjects, (1 active, 1 placebo), who were dosed at least 48 hours in advance of the other subjects in their respective group. Following review of safety data, including physical examination, vital signs, and review of adverse events from the first 2 subjects, enrolment in the cohort continued. All subjects who met eligibility criteria were confined to the clinical research unit from Day −2 through Day 3. At admission, physical examination, vital signs, 12 lead ECG and weight were obtained, medical and medication history were updated if necessary, safety blood tests (hematology and chemistry), urinalysis, urine drug screen and an alcohol breath test were repeated and a urine pregnancy test was done for women of childbearing potential.
as §1

Q: Which “Related TEAE Co[?], n participants” value (Pooled SEQ ID NO: 1 (N = 29)) does the source give for `CC(C)[C@H](NC(=O)[C@H](Cc1c[nH]c2ccccc12)NC(=O)[C@H](CCCNC(=N)N)NC(=O)[C@H](CCCNC(=N)N)NC(=O)[C@@H](NC(=O)[C@@H](NC(=O)[C@H](CCCNC(=N)N)NC(=O)[C@@H](NC(=O)[C@@H](NC(=O)[C@H](CCCNC(=N)N)NC(=O)[C@H](CCCNC(=N)N)NC(=O)[C@H](Cc1c[nH]c2ccccc12)NC(=O)[C@@H](NC(=O)[C@H](CCCNC(=N)N)NC(=O)[C@H](CCCNC(=N)N)NC(=O)[C@@H](NC(=O)[C@H](CCCNC(=N)N)NC(=O)[C@H](CCCNC(=N)N)NC(=O)[C@@H](NC(=O)[C@H](Cc1c[nH]c2ccccc12)NC(=O)[C@H](CCCNC(=N)N)NC(=O)[C@@H](N)CCCNC(=N)N)C(C)C)C(C)C)C(C)C)C(C)C)C(C)C)C(C)C)C(C)C)C(=O)N[C@@H](CCCNC(=N)N)C(=O)N[C@@H](CCCNC(=N)N)C(N)=O` [SEQ ID NO: 1] (H-RRWVRRVRRVWRRVVRVVRRWVRR-NH2) here?
A: 0

Q: And the “Related TEAE F[?], n participants” value (Pooled SEQ ID NO: 1 (N = 29))?
A: 0

Q: And the “Related TEAE Nervous system disorders, n participants” value (Pooled SEQ ID NO: 1 (N = 29))?
A: 0

Q: And the “Related TEAE O[?] (r38, respiratory SOC), n participants” value (Pooled SEQ ID NO: 1 (N = 29))?
A: 0

Q: What about the “Related TEAE Pain in extremity, n participants” value (Pooled SEQ ID NO: 1 (N = 29)) of the same compound?
A: 0

Q: And the “Related TEAE Respiratory, thoracic and m[?] disorders, n participants” value (Pooled SEQ ID NO: 1 (N = 29))?
A: 0

Q: What about the “Related TEAE T[?], n participants” value (Pooled SEQ ID NO: 1 (N = 29)) of the same compound?
A: 0

Q: What about the “Related TEAE [?] headache, n participants” value (Pooled SEQ ID NO: 1 (N = 29)) of the same compound?
A: 0

Q: And the “Related TEAE, occurrences (M)” value (Pooled SEQ ID NO: 1 (N = 29))?
A: 12

Q: And the “TEAE A[?] (r19, skin SOC), n participants” value (Pooled SEQ ID NO: 1 (N = 29))?
A: 0

Q: And the “TEAE Blood and lymphatic system disorders, n participants” value (Pooled SEQ ID NO: 1 (N = 29))?
A: 0

Q: And the “TEAE Constipation, n participants” value (Pooled SEQ ID NO: 1 (N = 29))?
A: 0

Q: What about the “TEAE D[?] contact, M occurrences” value (Pooled SEQ ID NO: 1 (N = 29)) of the same compound?
A: 3

Q: What about the “TEAE D[?] contact, n participants” value (Pooled SEQ ID NO: 1 (N = 29)) of the same compound?
A: 2

Q: And the “TEAE Gastrointestinal disorders, M occurrences” value (Pooled SEQ ID NO: 1 (N = 29))?
A: 3

Q: And the “TEAE Gastrointestinal disorders, n participants” value (Pooled SEQ ID NO: 1 (N = 29))?
A: 2

Q: What about the “TEAE General disorders and administration site conditions, M occurrences” value (Pooled SEQ ID NO: 1 (N = 29)) of the same compound?
A: 8

Q: What about the “TEAE General disorders and administration site conditions, n participants” value (Pooled SEQ ID NO: 1 (N = 29)) of the same compound?
A: 7

Q: What about the “TEAE Injury, [?] and procedural complications, % participants” value (Pooled SEQ ID NO: 1 (N = 29)) of the same compound?
A: 48.3%

Q: And the “TEAE Injury, [?] and procedural complications, n participants” value (Pooled SEQ ID NO: 1 (N = 29))?
A: 14

Q: And the “TEAE O[?] (r37, vascular SOC), M occurrences” value (Pooled SEQ ID NO: 1 (N = 29))?
A: 2

Q: And the “TEAE O[?] (r37, vascular SOC), n participants” value (Pooled SEQ ID NO: 1 (N = 29))?
A: 1

Q: And the “TEAE O[?] pain, n participants” value (Pooled SEQ ID NO: 1 (N = 29))?
A: 0

Q: What about the “TEAE Related (to study drug), M occurrences” value (Pooled SEQ ID NO: 1 (N = 29)) of the same compound?
A: 12

Q: And the “TEAE Related (to study drug), n participants” value (Pooled SEQ ID NO: 1 (N = 29))?
A: 2

Q: What about the “TEAE Respiratory, thoracic and [?] disorders, n participants” value (Pooled SEQ ID NO: 1 (N = 29)) of the same compound?
A: 0

Q: And the “TEAE Severity Grade 1, participants %” value (Pooled SEQ ID NO: 1 (N = 29))?
A: 82.8%

Q: And the “TEAE Severity Grade 1, participants n” value (Pooled SEQ ID NO: 1 (N = 29))?
A: 24

Q: And the “TEAE Skin reaction, M occurrences” value (Pooled SEQ ID NO: 1 (N = 29))?
A: 3

Q: And the “TEAE Skin reaction, n participants” value (Pooled SEQ ID NO: 1 (N = 29))?
A: 2

Q: And the “TEAE V[?] (r24, general SOC), M occurrences” value (Pooled SEQ ID NO: 1 (N = 29))?
A: 4

Q: And the “TEAE V[?] (r24, general SOC), n participants” value (Pooled SEQ ID NO: 1 (N = 29))?
A: 3

Q: What about the “TEAE Vascular disorders, M occurrences” value (Pooled SEQ ID NO: 1 (N = 29)) of the same compound?
A: 5

Q: And the “TEAE Vascular disorders, n participants” value (Pooled SEQ ID NO: 1 (N = 29))?
A: 3

Q: What about the “TEAE [?] (r26, general SOC), n participants” value (Pooled SEQ ID NO: 1 (N = 29)) of the same compound?
A: 0

Q: What about the “TEAE [?] (r39, vascular SOC), n participants” value (Pooled SEQ ID NO: 1 (N = 29)) of the same compound?
A: 0

Q: And the “TEAE [?] (r44, nervous SOC), n participants” value (Pooled SEQ ID NO: 1 (N = 29))?
A: 0

Q: What about the “TEAE [?] (r52, blood SOC), n participants” value (Pooled SEQ ID NO: 1 (N = 29)) of the same compound?
A: 0

Q: And the “TEAE, occurrences (M)” value (Pooled SEQ ID NO: 1 (N = 29))?
A: 52

Q: What about the “Participants With At Least 1 TEAE, n (%)” value (Pooled SEQ ID NO: 1 (N = 35)) of the same compound?
A: 31 (88.6%)

Q: What about the “Participants With At Least 1 TEAE, occurrences m” value (Pooled SEQ ID NO: 1 (N = 35)) of the same compound?
A: 71 and 72

Q: And the “Participants With At Least 1 Treatment-Related TEAE, n (%)” value (Pooled SEQ ID NO: 1 (N = 35))?
A: 13 (37.1%)

Q: What about the “Participants With At Least 1 Treatment-Related TEAE, occurrences m” value (Pooled SEQ ID NO: 1 (N = 35)) of the same compound?
A: 23

Q: And the “TEAE by system organ class: Blood and Lymphatic System Disorders, participants n (%)” value (Pooled SEQ ID NO: 1 (N = 35))?
A: 0

Q: What about the “TEAE by system organ class: Gastrointestinal Disorders, occurrences m” value (Pooled SEQ ID NO: 1 (N = 35)) of the same compound?
A: 4

Q: What about the “TEAE by system organ class: Gastrointestinal Disorders, participants n (%)” value (Pooled SEQ ID NO: 1 (N = 35)) of the same compound?
A: 3 (8.6%)

Q: And the “TEAE by system organ class: General Disorders and Administration Site Conditions, occurrences m” value (Pooled SEQ ID NO: 1 (N = 35))?
A: 17

Q: And the “TEAE by system organ class: General Disorders and Administration Site Conditions, participants n (%)” value (Pooled SEQ ID NO: 1 (N = 35))?
A: 13 (37.1%)

Q: And the “TEAE by system organ class: Infections and Infestations, occurrences m” value (Pooled SEQ ID NO: 1 (N = 35))?
A: 1

Q: What about the “TEAE by system organ class: Infections and Infestations, participants n (%)” value (Pooled SEQ ID NO: 1 (N = 35)) of the same compound?
A: 1 (2.9%)

Q: What about the “TEAE by system organ class: Injury, Poisoning, and Procedural Complications, occurrences m” value (Pooled SEQ ID NO: 1 (N = 35)) of the same compound?
A: 24

Q: And the “TEAE by system organ class: Injury, Poisoning, and Procedural Complications, participants n (%)” value (Pooled SEQ ID NO: 1 (N = 35))?
A: 18

Q: What about the “TEAE by system organ class: Musculoskeletal and Connective Tissue Disorders, occurrences m” value (Pooled SEQ ID NO: 1 (N = 35)) of the same compound?
A: 6

Q: And the “TEAE by system organ class: Musculoskeletal and Connective Tissue Disorders, participants n (%)” value (Pooled SEQ ID NO: 1 (N = 35))?
A: 6 (17.1%)

Q: What about the “TEAE by system organ class: Nervous System Disorders, occurrences m” value (Pooled SEQ ID NO: 1 (N = 35)) of the same compound?
A: 6

Q: And the “TEAE by system organ class: Nervous System Disorders, participants n (%)” value (Pooled SEQ ID NO: 1 (N = 35))?
A: 6 (17.1%)

Q: And the “TEAE by system organ class: Respiratory, Thoracic, and Mediastinal disorders, participants n (%)” value (Pooled SEQ ID NO: 1 (N = 35))?
A: 0

Q: And the “TEAE by system organ class: Skin and Subcutaneous Tissue Disorders, occurrences m” value (Pooled SEQ ID NO: 1 (N = 35))?
A: 9

Q: What about the “TEAE by system organ class: Skin and Subcutaneous Tissue Disorders, participants n (%)” value (Pooled SEQ ID NO: 1 (N = 35)) of the same compound?
A: 7 (20.0%)

Q: And the “TEAE by system organ class: Vascular Disorders, occurrences m” value (Pooled SEQ ID NO: 1 (N = 35))?
A: 5

Q: And the “TEAE by system organ class: Vascular Disorders, participants n (%)” value (Pooled SEQ ID NO: 1 (N = 35))?
A: 3 (8.6%)

Q: And the “TEAE severity Grade 1, occurrences m” value (Pooled SEQ ID NO: 1 (N = 35))?
A: 64

Q: What about the “TEAE severity Grade 1, participants n (%)” value (Pooled SEQ ID NO: 1 (N = 35)) of the same compound?
A: 30 (85.7%)

Q: What about the “TEAE severity Grade 2, occurrences m” value (Pooled SEQ ID NO: 1 (N = 35)) of the same compound?
A: 8

Q: What about the “TEAE severity Grade 2, participants n (%)” value (Pooled SEQ ID NO: 1 (N = 35)) of the same compound?
A: 5 (14.3%)

Q: What about the “TEAE severity Grade 3, participants n (%)” value (Pooled SEQ ID NO: 1 (N = 35)) of the same compound?
A: 0

Q: What about the “TEAE severity Grade 4, participants n (%)” value (Pooled SEQ ID NO: 1 (N = 35)) of the same compound?
A: 0
